Data taken from patent US20230295236A1, “COMPOUNDS FOR USE IN INFLAMMATORY CONDITIONS” (priority 2020, published 2023).
Where two headings read alike, the source gives them in different places. Numbered stars: 1 amine (or outer) side, 2 acyl side, 3 side chain; on linkers, the order of the positions; unused ones are H or OH. Bridge positions count the residues as written; N and C are the ends. Square brackets hold non-standard residues; d marks the D form. Peptide text beside a SMILES is read from it. * marks the point of attachment. Benzothiophen(2-yl)carbonyl = O=C(c1cc2ccccc2s1)*; X2 = CC[C@H](C)[C@@H](N[*:1])[C@@H](O)CC(=O)[*:2]; NMeY = CN[C@@H](Cc1ccc(O)cc1)C(=O)O; dNMeL = CN[C@H](CC(C)C)C(=O)O; Hiv = CC(C)[C@H](O)C(=O)O; Aib = CC(C)(N)C(=O)O

Key:
[1] = test system: Huh-7 cells (human hepatoma cell line)
HCoV-229E = format: cell-based
TNFα = experiment: Resiquimod-triggered TNFα in BALF of mice; format: in vivo; settings: mice 1 mg/kg i.v. 1 hour before 50 µg/mouse intranasal resiquimod; 1 and 3 hours
[2] = test system: IL6, IL8, IL1β and TNF-α secretion; experiment: Plitidepsin pre-treatment of THP-1 NFκB luc cells before Resiquimod: cytokines; format: cell-based, human; settings: 1, 10 or 50 nM added 8 hours before Resiquimod 2.5 or 5 µg/mL; measured at 24 hours
Description: (§1) In a further in vitro experiment, the effect of plitidepsin (APL) pre-treatment on THP-1 cells was studied. Using a THP-1 NFκB luc line, 1, 10 or 50 nM of APL or DMSO (0.2%) was added 8 hours before stimulus with Resiquimod (RQ) at 2.5 or 5 µg/mL. RQ is a TLR⅞ agonist and mimics ssRNA. At 24 hours the level of cytokines or cell viability was measured.

alveolar macrophages = experiment: LPS animal inflammation model: macrophages in bronchoalveolar lavage by flow cytometry; format: in vivo, mouse; settings: mice 1 mg/kg single i.v., LPS 20 µg/kg i.p.
Text: Three hours later, bronchoalveolar lavages were collected.

SARS-CoV-2 = experiment: APLICOV-PC clinical study in patients hospitalised for COVID-19: efficacy; format: in vivo, human
THP-1 cells = experiment: Plitidepsin pre-treatment of THP-1 NFκB luc cells before Resiquimod: cell viability; format: cell-based, human; settings: 1, 10 or 50 nM added 8 hours before Resiquimod 2.5 or 5 µg/mL; measured at 24 hours
Description: as §1

[3] = test system: HIV-1 recombinant virus (NL4.3 Luc); format: cell-based; settings: MT-2 cells
[4] = test system: HIV-1 recombinant virus (NL4.3 Luc); format: cell-based; settings: PBMCs

CC[C@H](C)[C@H]1NC(=O)[C@@H](NC(=O)[C@@H](CC(C)C)NC)[C@@H](C)OC(=O)[C@H](Cc2ccc(OC)cc2)N(C)C(=O)[C@@H]2CCCN2C(=O)[C@H](CC(C)C)NC(=O)C(C)(C)NC(=O)C[C@@H]1O [Compound 3] (H-[dNMeL]T[X2][Aib]LP[NMeY](Me); ester 2-C)
Toxic concentrations (not reached at) (MT-2 cells): > 57.3 µM

CC[C@H](C)[C@H]1NC(=O)[C@@H](NC(=O)[C@@H](CC(C)C)N(C)C(=O)c2cc3ccccc3s2)[C@@H](C)OC(=O)[C@H](Cc2ccc(OC)cc2)N(C)C(=O)[C@@H]2CCCN2C(=O)[C@H](CC(C)C)NC(=O)[C@H](C(C)C)OC(=O)C[C@@H]1O [Compound 10] ({Benzothiophen(2-yl)carbonyl}-[dNMeL]T[X2][Hiv]LP[NMeY](Me); ester 2-C)
Cell growth / viability (DAPI fluorescence images) [1]: cells remain viable at all concentrations | Antiviral activity (GFP fluorescence images) (HCoV-229E): remarkable antiviral properties are seen across all concentrations

CC[C@H](C)[C@H]1NC(=O)[C@@H](NC(=O)[C@H](CC(C)C)N(C)C(=O)[C@@H]2CCCN2C(=O)C(C)=O)[C@@H](C)OC(=O)[C@H](Cc2ccc(OC)cc2)N(C)C(=O)[C@@H]2CCCN2C(=O)[C@H](CC(C)C)NC(=O)[C@@H](C)C(=O)[C@H](C(C)C)OC(=O)C[C@@H]1O [PLD, Plitidepsin]
Resiquimod-induced TNFα production in BALF (TNFα): prevented the increased production of TNFα | Secretion of IL6, IL8, IL1β and TNF-α induced by RQ [2]: inhibited secretion of the pro-inflammatory cytokines: IL6, IL8, IL1β and TNF-α | Cell growth / viability (DAPI fluorescence images) [1]: cells remain viable at all concentrations | Macrophages in bronchoalveolar lavage (alveolar macrophages): reduces the number of macrophages in BAL | Antiviral activity (GFP fluorescence images) (HCoV-229E): remarkable antiviral properties are seen across all concentrations | Median time for PCR conversion (SARS-CoV-2): 7 days | Evaluable patients requiring post PLD specific anti COVID 19 therapy (SARS-CoV-2; interim results): 2 out of 8 | Evaluable patients with disease control and major clinical improvements (SARS-CoV-2; interim results): 6 out of 8 | Evaluable patients with PCR conversion to negative (SARS-CoV-2; interim results, 1.5 mg and 2 mg cohorts): 6 out of 8 | Deaths on study (SARS-CoV-2; interim results, 9 patients): no deaths on study | Need for mechanical ventilation or ICU admission (SARS-CoV-2; interim results, 9 patients): none of the patients required mechanical ventilation or ICU admission | Median time to hospital discharge (SARS-CoV-2; interim results, range (7 -19)): 8 days | Cell viability (THP-1 cells): does not decrease viability over the untreated control

CC[C@H](C)[C@H]1NC(=O)[C@@H](NC(=O)[C@H](CC(C)C)N(C)C(=O)[C@@H]2CCCN2C(=O)C(C)=O)[C@@H](C)OC(=O)[C@H](Cc2ccc(OC)cc2)N(C)C(=O)[C@@H]2CCCN2C(=O)[C@H](CC(C)C)NC(=O)[C@@H](C)C(=O)[C@H](C(C)C)OC(=O)C[C@@H]1O [Compound 8]
Antiviral activity [3]: antiviral activity | Antiviral activity [4]: antiviral activity

CC[C@H](C)[C@H]1NC(=O)[C@@H](NC(=O)[C@@H](CC(C)C)N(C)C(=O)[C@@H]2CCCN2C(=O)[C@H](C)NC(=O)[C@@H](Cc2ccccc2)NC(=O)OC(C)(C)C)[C@@H](C)OC(=O)[C@H](Cc2ccc(OC)cc2)N(C)C(=O)[C@@H]2CCCN2C(=O)[C@H](CC(C)C)NC(=O)[C@@H](C)C(=O)[C@H](C(C)C)OC(=O)C[C@@H]1O [Compound 9]
Cell growth / viability (DAPI fluorescence images) [1]: cells remain viable at all concentrations | Antiviral activity (GFP fluorescence images) (HCoV-229E): remarkable antiviral properties are seen across all concentrations
